Results from PMC11619157, “Stephanine Protects Against Osteoporosis by Suppressing Osteoclastogenesis via Inhibition of the RANKL—RANK Interaction” (Journal of Cellular and Molecular Medicine, 2024).

What was measured:
RANKL = target: T1, RANKL (Homo sapiens, UniProt O14788); assay: SPR kinetics (Biacore S200), RANKL amine-coupled on CM5 chip; assay type: binding
T1 construct: gene TNFSF11; extracellular domain
T1 sequence (O14788 69-317 limits assumed): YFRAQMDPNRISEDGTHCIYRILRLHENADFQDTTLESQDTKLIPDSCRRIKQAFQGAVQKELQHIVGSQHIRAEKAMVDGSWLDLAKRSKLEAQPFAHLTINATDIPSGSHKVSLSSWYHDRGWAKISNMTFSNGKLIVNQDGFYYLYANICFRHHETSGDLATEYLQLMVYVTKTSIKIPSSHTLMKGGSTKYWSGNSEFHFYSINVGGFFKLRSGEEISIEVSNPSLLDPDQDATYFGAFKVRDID

RANK = target: T2, RANK (Homo sapiens, UniProt Q9Y6Q6); assay: SPR kinetics (Biacore S200), RANK amine-coupled on CM5 chip; assay type: binding
T2 construct: gene TNFRSF11A; extracellular domain
T2 sequence (Q9Y6Q6 30-212 limits assumed): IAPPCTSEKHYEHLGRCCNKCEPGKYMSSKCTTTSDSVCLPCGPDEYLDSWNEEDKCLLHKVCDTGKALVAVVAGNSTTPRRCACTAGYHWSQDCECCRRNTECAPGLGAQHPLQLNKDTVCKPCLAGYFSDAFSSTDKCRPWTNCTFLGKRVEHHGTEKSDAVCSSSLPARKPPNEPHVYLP

## COc1cccc2c1C[C@@H]1c3c(cc4c(c3-2)OCO4)CCN1C [SA, Stephanine]
RANKL
  Kd: 76.5 µM
RANK
  Kd: 3.7 µM
